Laboratory results reported in patent publication US9700543B2, “GLP-1 receptor stabilizers and modulators” (Celgene International II SÀRL, priority 2011, dated 2017).

How the values were obtained:
[1] = target: T1, GLP-1R (Homo sapiens, UniProt P43220); test: EC20 GLP-1(9-36) PAM cAMP assay: dose response of compound in the presence of fixed concentration of GLP-1(9-36); format: cell-based; conditions: compound dose response with fixed GLP-1(9-36), GLP-1R CRE-bla CHO-K1 cells; for EC20 GLP-1 (9-36) PAM Activity max cAMP: Emax as total cAMP; for EC50: cAMP
T1 construct: host or cells: CRE-bla CHO-K1
T1 sequence (P43220 24-463): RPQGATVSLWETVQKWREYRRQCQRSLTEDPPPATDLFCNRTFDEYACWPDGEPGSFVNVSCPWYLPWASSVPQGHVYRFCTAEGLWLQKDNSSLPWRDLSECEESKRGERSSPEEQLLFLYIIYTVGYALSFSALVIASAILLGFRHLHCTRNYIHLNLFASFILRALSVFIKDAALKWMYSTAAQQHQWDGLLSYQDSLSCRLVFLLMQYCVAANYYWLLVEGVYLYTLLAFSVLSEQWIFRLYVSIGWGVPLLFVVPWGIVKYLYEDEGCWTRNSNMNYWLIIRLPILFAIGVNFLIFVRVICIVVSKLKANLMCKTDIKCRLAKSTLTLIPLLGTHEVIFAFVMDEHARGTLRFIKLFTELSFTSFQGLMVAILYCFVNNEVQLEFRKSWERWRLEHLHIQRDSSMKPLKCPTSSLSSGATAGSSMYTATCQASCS
T1 sequence (P01275 100-127 partner limits assumed): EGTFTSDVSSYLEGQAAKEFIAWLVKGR
Experimental: EC20GLP-1(9-36) PAM cAMP Assay: Dose Response of Compound in the Presence of Fixed Concentration of GLP-1 (9-36)
GLP-1R CRE-bla CHO-K1 cells were seeded into 384-well white flat bottom plates at 10,000 cells/well/20 μL growth medium (DMEM-High glucose, 10% dialyzed FBS, 0.1 mM NEAA, 25 mM Hepes, 100 U/mL penicillin/100 μg/mL streptomycin, 5 μg/mL Blasticidin, 600 μg/mL Hygromycin) and incubated for 18 h at 37° C. in 5% CO2. Growth medium was replaced with 12 μL assay buffer (Hanks Balanced Salt solution, 10 mM Hepes, 0.1% BSA, pH7.4). A 5× compound dose response curve (12-point) was generated in assay buffer containing 1.5 mM IBMX, 12.5% DMSO. GLP-1(9-36) was diluted to 4.2 μM in assay buffer containing 1.5 mM IBMX and 12.5% DMSO. The 5× compound dose response was added (3 μL), followed by 0.5 μL of GLP-1(9-36) and cells were incubated for 30 min at 37° C. Direct detection of cAMP was carried out using DiscoveRx HitHunter cAMP kit according to manufacturer's instructions and luminescence was read using a SpectraMax M5 plate reader. Luminescence was converted to total cAMP using a cAMP standard curve and data was analyzed by non-linear regression to determine the EC50 and Emax.

[2] = Determination of absolute oral bioavailability in rats; format: in vivo; conditions: rat, plasma; fasted female Sprague-Dawley rats; oral solution 5 mg/kg, intravenous 1 mg/kg
Experimental: Determination of Absolute Oral Bioavailability in Rats
All pharmacokinetic studies were conducted in fasted female Sprague-Dawely rats (Simonsen Laboratories or Harlan Laboratories). Rats were housed in an ALAAC accredited facility and the research was approved by the facilities Institutional Animal Care and Use Committee (IACUC). The animals were acclimated to the laboratory for at least 48 h prior to initiation of experiments.
Compounds were formulated in 20% hydroxy beta cyclodextrin or 20% captisol and 80%-25 mM NaPO4 Buffer (pH 8) (intravenous infusion), or 5% DMSO/5% Tween20 and 90% water (oral gavage or intraperitoneal injection). The concentration of the dosing solutions was verified by HPLC-UV. For intravenous dosing, compounds were administered into the tail vein to manually restrained animals (n=3 rats/compound). The intravenous dose was 1 mg/kg. Oral dosing was by gavage using a standard stainless steel gavage needle (n=2-4 rats/compound). The oral solution dose was 5 mg/kg. For compounds 1 and 3, the oral solution dose was 30 mg/kg. For both routes of administration, blood was collected into BD Microtainer tubes with Dipotassium EDTA as the anticoagulantant eight time-points after dosing with the final sample drawn 24 h post dose Plasma was separated by centrifugation and transferred to a polypropylene 96-well plate and kept at 4° C. until analysis.
Proteins were precipitated by adding 150 μL acetonitrile to 50 μL of plasma. Plates were mixed for 1 min on a plate shaker to facilitate protein precipitation and then centrifuged at 3,000 rpm for 10 min to pellet protein. The supernatant was transferred to a clean plate and centrifuged at 3,000 rpm for 10 min to pellet any remaining solid material prior to LC/MS/MS analysis. Calibration curve standards were prepared by spiking 54 compound stock in DMSO into rat plasma from untreated animals. An eight point standard curve spanning a range of 0.14 nM to 300 nM was included with each bio-analytical run. The standards were processed identically to the rat pharmacokinetic samples.
Concentrations in the rat pharmacokinetic samples were determined using a standardized HPLC-LC/MS/MS method relative to the eight point standard curve. The system consisted of a Leap CTC Pal injector, Agilent 1200 HPLC with binary pump coupled with an Applied Biosystems 4000 QTrap. Compounds were chromatographed on a Phenomenex Luna C8(2) 20×2 mm 2 um Mercury Cartridge with Security Guard. A gradient method was used with mobile phase A consisting of 0.1% formic acid in water and mobile phase B consisting of 0.1% formic acid in acetonitrile at flow rates varying from 0.7 to 0.8 mL/min. Ions were generated in positive ionization mode using an electrospray ionization (ESI) interface. Multiple reaction monitoring (MRM) methods were developed specific to each compound. The heated nebulizer was set at 500° C. with a nebulizer current of 5.1 μA. Collision energies used to generate daughter ions ranged between 29 and 80 V. Peak area obtained from MRM of the mass transitions specific for each compound were used for quantification. The limit of quantification of the method was typically 1.2 nM. Data were collected and analyzed using Analyst software version 1.5.1. Blood concentration versus time data were analyzed using non-compartmental methods (WinNonlin Phoenix version 6.2; model 200 for oral or intraperitoneal dosing and model 202 for intravenous infusion). Absolute oral bioavailability (%) was calculated using the following expression: (Oral AUC×IV Dose)/(IV AUC×Oral Dose)×100.

SMILES | EC20 GLP-1 (9-36) PAM Activity max cAMP [1] | EC50 [1] | bioavailability [2]
COc1ccc(CC(=O)Nc2ccc(C(=O)N(CC(=O)O)Cc3ccc(-c4nc(-c5ccc(C)cc5)no4)cc3)cc2)c(C(F)(F)F)c1 [Compound 363, 2-(4-(2-(4-methoxy-2-(trifluoromethyl)phenyl)acetamido)-N-(4-(3-(p-tolyl)-1,2,4-oxadiazol-5-yl)benzyl)benzamido)acetic acid] | 237 nM | 3200 nM | 3%
COc1ccc(CC(=O)Nc2ccc(C(=O)N(CC(=O)O)Cc3ccc(-c4coc(-c5ccc(-c6ccc(C)cc6)cc5)n4)cc3)cc2)c(C(F)(F)F)c1 [Compound 364, 2-(4-(2-(4-methoxy-2-(trifluoromethyl)phenyl)acetamido)-N-(4-(2-(4′-methyl-[1,1′-biphenyl]-4-yl)oxazol-4-yl)benzyl)benzamido)acetic acid] | 278 nM | 400 nM | 10%
COc1ccc(OC)c(CC(=O)Nc2ccc(C(=O)N(CC(=O)O)Cc3ccc(-c4noc(-c5ccc(-c6ccc(C)cc6)cc5)n4)cc3)cc2)c1 [Compound 405, 2-(4-(2-(2,5-dimethoxyphenyl)acetamido)-N-(4-(5-(4′-methyl-[1,1′-biphenyl]-4-yl)-1,2,4-oxadiazol-3-yl)benzyl)benzamido)acetic acid] | 206 nM | 300 nM | 8%
COc1cccc(OC)c1CC(=O)Nc1ccc(C(=O)N(CC(=O)O)Cc2ccc(-c3noc(-c4ccc(-c5ccc(C)cc5)cc4)n3)cc2)cc1 [Compound 411, 2-(4-(2-(2,6-dimethoxyphenyl)acetamido)-N-(4-(5-(4′-methyl-[1,1′-biphenyl]-4-yl)-1,2,4-oxadiazol-3-yl)benzyl)benzamido)acetic acid] | 258 nM | 200 nM | 10%
COc1ccc(F)c(CC(=O)Nc2ccc(C(=O)N(CC(=O)O)Cc3ccc(-c4noc(-c5ccc(-c6ccc(C)cc6)cc5)n4)cc3)cc2)c1F [Compound 441, 2-(4-(2-(2,6-difluoro-3-methoxyphenyl)acetamido)-N-(4-(5-(4′-methyl-[1,1′-biphenyl]-4-yl)-1,2,4-oxadiazol-3-yl)benzyl)benzamido)acetic acid] | 167 nM | 500 nM | 5%
COc1ccc(OC)c(CC(=O)Nc2ccc(C(=O)N(CC(=O)O)Cc3ccc(-c4nc(-c5ccc(-c6ccc(C)cc6)cc5)no4)cc3)cc2)c1 [Compound 457, 2-(4-(2-(2,5-dimethoxyphenyl)acetamido)-N-(4-(3-(4′-methyl-[1,1′-biphenyl]-4-yl)-1,2,4-oxadiazol-5-yl)benzyl)benzamido)acetic acid] | 266 nM | 200 nM | 19.4%
COc1cccc(OC)c1CC(=O)Nc1ccc(C(=O)N(CC(=O)O)Cc2ccc(-c3nc(-c4ccc(-c5ccc(C)cc5)cc4)no3)cc2)cc1 [Compound 458, 2-(4-(2-(2,6-dimethoxyphenyl)acetamido)-N-(4-(3-(4′-methyl-[1,1′-biphenyl]-4-yl)-1,2,4-oxadiazol-5-yl)benzyl)benzamido)acetic acid] | 302 nM | 200 nM | 14.8%
COc1ccc(CC(=O)Nc2ccc(C(=O)N(CC(=O)O)Cc3ccc(-c4noc(-c5ccc(-c6ccc(C)cc6)cc5)n4)cc3)c(F)c2)c(C(F)(F)F)c1 [Compound 496, 2-(2-fluoro-4-(2-(4-methoxy-2-(trifluoromethyl)phenyl)acetamido)-N-(4-(5-(4′-methyl-[1,1′-biphenyl]-4-yl)-1,2,4-oxadiazol-3-yl)benzyl)benzamido)acetic acid] | 310 nM | 500 nM | 7%
